Test results: ChEMBL document CHEMBL1221184, “Identifying off-target effects and hidden phenotypes of drugs in human cells” (Nat Chem Biol, 2006)
Calls of active or inactive are those of the source. No cut-off for these calls is given here. Residues, ends and D or L forms follow the SMILES beside them. *: point of attachment. Cbz = O=C(OCc1ccccc1)*

How the values were obtained:
PC-3 [1] = test: Antiproliferative activity against human PC3 cells at 12.5 uM after 120 hrs by MTT assay relative to DMSO; assay type: functional
PC-3 [2] = test: Antiproliferative activity against human PC3 cells at 100 nM after 120 hrs by MTT assay relative to DMSO; assay type: functional
PC-3 [3] = test: Antiproliferative activity against human PC3 cells at 10 ng/ml after 120 hrs by MTT assay relative to DMSO; assay type: functional
PC-3 [4] = test: Antiproliferative activity against human PC3 cells at 1.5 uM after 120 hrs by MTT assay relative to DMSO; assay type: functional
HEK293 [5] = test: Inhibition of proteasome expressed in HEK293 cells assessed as effect on p53-Chk1 interaction complexes by EYFP and/or YFP Venus fragment based reporter gene assay
HEK293 [6] = test: Inhibition of proteasome expressed in HEK293 cells assessed as effect on E6:E6AP interaction complexes by EYFP and/or YFP Venus fragment based reporter gene assay
HEK293 [7] = test: Inhibition of proteasome expressed in HEK293 cells assessed as effect on Pin1-Jun interaction complexes by EYFP and/or YFP Venus fragment based reporter gene assay
PC-3 [8] = test: Antiproliferative activity against human PC3 cells at 1 uM after 120 hrs by MTT assay relative to DMSO; assay type: functional
HEK293 [9] = test: Inhibition of proteasome expressed in HEK293 cells assessed as effect on p53-p53 interaction complexes by EYFP and/or YFP Venus fragment based reporter gene assay
Cofilin-1 (Homo sapiens) [10] = target: Cofilin-1 (Homo sapiens) (UniProt P23528); test: Effect on cofilin1 expressed in HEK293 cells assessed as effect on cofilin1; Limk2 interaction complexes by EYFP and/or YFP Venus fragment based reporter gene assay; assay type: cell-based
HEK293 [11] = test: Inhibition of proteasome expressed in HEK293 cells assessed as effect on CyclinD1-CDK4 interaction complexes by EYFP and/or YFP Venus fragment based reporter gene assay
PC-3 [12] = test: Antiproliferative activity against human PC3 cells at 200 nM after 120 hrs by MTT assay relative to DMSO; assay type: functional
[13] = Antiproliferative activity against human U87MG cells after 120 hrs by MTT assay; assay type: functional, cell-based, U-87MG ATCC; conditions: U-87 MG
A549 = test: Antiproliferative activity against human A549 cells after 120 hrs by MTT assay; assay type: functional, cell-based; conditions: A549, 120 h
MIA PaCa-2 = test: Antiproliferative activity against human MIAPaCa2cells after 120 hrs by MTT assay; assay type: functional, cell-based; conditions: MIA PaCa-2, 120 h
LoVo = test: Antiproliferative activity against human LoVo cells after 120 hrs by MTT assay; assay type: functional, cell-based
PC-3 [14] = test: Antiproliferative activity against human PC3 cells after 120 hrs by MTT assay; assay type: functional, cell-based; conditions: PC-3, 120 h
PC-3 [15] = test: Antiproliferative activity against human PC3 cells at 2.5 uM after 120 hrs by MTT assay relative to DMSO; assay type: functional
PC-3 [16] = test: Antiproliferative activity against human PC3 cells at 15 uM after 120 hrs by MTT assay relative to DMSO; assay type: functional
[17] = target: Transcription factor Jun (Homo sapiens) (UniProt P05412); test: Inhibition of c-Jun expressed in HEK293 cells assessed as induction of protein interaction in presence of camptothecin with Pin1 by EYFP based reporter gene assay; assay type: cell-based
PC-3 [18] = test: Antiproliferative activity against human PC3 cells at 300 nM after 120 hrs by MTT assay relative to DMSO; assay type: functional
[19] = target: Cyclin-dependent kinase 1 (Homo sapiens) (UniProt P06493); test: Effect on Cdc2 expressed in HEK293 cells assessed as effect on Cdc2:Cdc25A interaction complexes in presence of camptothecin by EYFP and/or YFP Venus fragment based reporter gene assay; assay type: cell-based
[20] = target: Cyclin-dependent kinase 1 (Homo sapiens) (UniProt P06493); test: Effect on Cdc2 expressed in HEK293 cells assessed as effect on Cdc2:Cdc25C interaction complexes in presence of camptothecin by EYFP and/or YFP Venus fragment based reporter gene assay; assay type: cell-based
Cofilin-1 (Homo sapiens) [21] = target: Cofilin-1 (Homo sapiens) (UniProt P23528); test: Effect on cofilin1 expressed in HEK293 cells assessed as effect on cofilin1; Limk2 interaction complexes in presence of camptothecin by EYFP and/or YFP Venus fragment based reporter gene assay; assay type: cell-based
PC-3 [22] = test: Antiproliferative activity against human PC3 cells at 250 nM after 120 hrs by MTT assay relative to DMSO; assay type: functional
PC-3 [23] = test: Antiproliferative activity against human PC3 cells at 10 uM after 120 hrs by MTT assay relative to DMSO; assay type: functional
Cofilin-1 (Homo sapiens) [24] = target: Cofilin-1 (Homo sapiens) (UniProt P23528); test: Inhibition of cofilin1 expressed in HEK293 cells assessed as effect on cofilin1; Limk2 interaction complexes by EYFP and/or YFP Venus fragment based reporter gene assay; assay type: cell-based

Cyclin-dependent kinase 1 (Homo sapiens), sequence (P06493 whole entry, looked up, the tested form may be a part): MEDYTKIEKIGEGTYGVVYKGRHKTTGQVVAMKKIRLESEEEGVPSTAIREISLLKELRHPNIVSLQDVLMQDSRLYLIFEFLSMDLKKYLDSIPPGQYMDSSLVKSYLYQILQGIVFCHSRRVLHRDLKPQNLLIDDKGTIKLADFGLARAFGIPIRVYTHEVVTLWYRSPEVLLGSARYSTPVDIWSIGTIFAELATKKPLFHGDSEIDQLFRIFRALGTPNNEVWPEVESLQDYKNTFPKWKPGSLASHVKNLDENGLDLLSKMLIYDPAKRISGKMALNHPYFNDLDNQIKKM
Cofilin-1 (Homo sapiens), sequence (P23528 whole entry, the tested form may be a part): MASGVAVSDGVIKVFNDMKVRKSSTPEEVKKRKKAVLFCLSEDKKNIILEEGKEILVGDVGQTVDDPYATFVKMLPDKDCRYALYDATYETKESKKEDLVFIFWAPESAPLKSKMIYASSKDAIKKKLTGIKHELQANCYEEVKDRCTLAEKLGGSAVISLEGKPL
Transcription factor Jun (Homo sapiens), sequence (P05412 whole entry): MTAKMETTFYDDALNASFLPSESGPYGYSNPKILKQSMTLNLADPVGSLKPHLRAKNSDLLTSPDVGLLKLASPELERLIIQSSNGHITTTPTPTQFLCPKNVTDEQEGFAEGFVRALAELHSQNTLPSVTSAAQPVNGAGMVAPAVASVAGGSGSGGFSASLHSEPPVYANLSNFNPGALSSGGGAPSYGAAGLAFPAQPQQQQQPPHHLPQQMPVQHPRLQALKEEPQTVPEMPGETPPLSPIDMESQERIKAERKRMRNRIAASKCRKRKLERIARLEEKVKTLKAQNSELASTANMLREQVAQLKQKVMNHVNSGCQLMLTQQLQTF

Q: Which “fold change (FC)” value (PC-3 [1]) does the source give for `O=c1c(-c2ccc(O)cc2)coc2cc(O)cc(O)c12` [GENISTEIN] here?
A: 1.074

Q: Which “fold change (FC)” value (PC-3 [2]) does the source give for `Cn1c2ccccc2c2c3c(c4c5ccccc5n(CCC#N)c4c21)CNC3=O` [GO-6976] here?
A: 1.119

Q: Which “fold change (FC)” value (PC-3 [3]) does the source give for `CCC(=C/[C@H](C)C/C=C/C(C)=C/[C@@H](C)C(=O)[C@@H](C)[C@H](O)[C@@H](C)C/C(C)=C/C(=O)O)/C=C/[C@@H]1OC(=O)C=C[C@@H]1C` [LEPTOMYCIN B] here?
A: 0.262

Q: Which “fold change (FC)” value (PC-3 [4]) does the source give for `N#Cc1ccc(C(c2ccc(C#N)cc2)n2cncn2)cc1` [LETROZOLE] here?
A: 1.001

Q: What does the source list for `CC(C)C[C@@H](C=O)NC(=O)[C@H](CC(C)C)NC(=O)[C@H](CC(C)C)NC(=O)OCc1ccccc1` [MG-132] (Cbz-Leu-Leu-Leu-aldehyde)?
A: inhibition (HEK293 [5]): Active; inhibition (HEK293 [6]): Active; inhibition (HEK293 [7]): Active; fold change (FC) (PC-3 [8]): 0.255; inhibition (HEK293 [9]): Active; Activity (Cofilin-1 (Homo sapiens) [10]): Active; inhibition (HEK293 [11]): Active

Q: For `Cc1[nH]c(=O)c(C#N)cc1-c1ccncc1` [MILRINONE], which “fold change (FC)” value (PC-3 [12]) is on record?
A: 1.015

Q: Which results are given for `O=C(Nc1ccc([N+](=O)[O-])cc1Cl)c1cc(Cl)ccc1O` [NICLOSAMIDE]?
A: IC50 [13]: 400 nM; IC50 (A549): 400 nM; IC50 (MIA PaCa-2): 1100 nM; fold change (FC) (PC-3 [8]): 0.408; IC50 (LoVo): 700 nM; IC50 (PC-3 [14]): 400 nM

Q: For `CC(=O)O[C@H]1C(=O)[C@@]2(C)[C@H]([C@H](OC(=O)c3ccccc3)[C@]3(O)C[C@H](OC(=O)[C@H](O)[C@@H](NC(=O)c4ccccc4)c4ccccc4)C(C)=C1C3(C)C)[C@]1(OC(C)=O)CO[C@@H]1C[C@@H]2O` [PACLITAXEL], which “fold change (FC)” value (PC-3 [15]) is on record?
A: 0.281

Q: Which “fold change (FC)” value (PC-3 [16]) does the source give for `CN(CCOc1ccc(CC2SC(=O)NC2=O)cc1)c1ccccn1` (centres undefined) [ROSIGLITAZONE] here?
A: 0.925

Q: Which Activity [17] does the source give for `C=C(C)[C@H]1Cc2c(ccc3c2O[C@@H]2COc4cc(OC)c(OC)cc4[C@@H]2C3=O)O1` [ROTENONE] here?
A: Active

Q: And the “fold change (FC)” value (PC-3 [18])?
A: 0.548

Q: And the Activity [19]?
A: Active

Q: What about the Activity [20] of the same compound?
A: Active

Q: And the Activity (Cofilin-1 (Homo sapiens) [21])?
A: Active

Q: For `COc1ccc(-n2nc(C(F)(F)F)cc2-c2ccc(Cl)cc2)cc1` [SC-560], which “fold change (FC)” value (PC-3 [22]) is on record?
A: 1.036

Q: Which Activity [17] does the source give for `CN[C@H]1CC[C@@H](c2ccc(Cl)c(Cl)c2)c2ccccc21` [SERTRALINE] here?
A: Active

Q: And the “fold change (FC)” value (PC-3 [23])?
A: 0.226

Q: And the Activity [19]?
A: Active

Q: What about the Activity [20] of the same compound?
A: Active

Q: And the Activity (Cofilin-1 (Homo sapiens) [21])?
A: Active

Q: And the inhibition (Cofilin-1 (Homo sapiens) [24])?
A: Active

Q: With `CO[C@H]1C[C@@H]2CC[C@@H](C)[C@@](O)(O2)C(=O)C(=O)N2CCCC[C@H]2C(=O)O[C@H]([C@H](C)C[C@@H]2CC[C@@H](O)[C@H](OC)C2)CC(=O)[C@H](C)/C=C(\C)[C@@H](O)[C@@H](OC)C(=O)[C@H](C)C[C@H](C)/C=C/C=C/C=C/1C` [SIROLIMUS] as the compound, how does the “fold change (FC)” value (PC-3 [22]) read?
A: 0.401

Q: Which “fold change (FC)” value (PC-3 [22]) does the source give for `O=C1CCC(N2C(=O)c3ccccc3C2=O)C(=O)N1` (centres undefined) [THALIDOMIDE] here?
A: 0.992
